According to the supplement of paper PMC10307832:

How the values were obtained:
Assay in all cases: relative viability (nuclei count vs DMSO), 5 days (fraction); higher = more cells survive
[1] = compound: C[C@H]([C@@H](C(=O)N)NC(=O)[C@@H]1CSSC[C@@H](C(=O)N[C@H](C(=O)N[C@@H](C(=O)N[C@H](C(=O)N1)CCCCN)CC2=CNC3=CC=CC=C32)CC4=CC=C(C=C4)O)NC(=O)[C@@H](CC5=CC=CC=C5)N)O [CAP-232]
Outline: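 Lung cancer cell lines in 1536-well plates were kept overnight at 37 °C, then pinned with five library-drug doses (not always all listed) spaced by √10 on vehicle-anchored plates. After 5 days without medium change, cells were fixed, permeabilised and Hoechst-stained in one step, imaged at 4×, and nuclei were counted with MetaXpress. Viability is treated-well nuclei divided by vehicle-well nuclei, taken as the median over plates. Plates passed only with control CV below 25% and at least one doubling.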

[2] = compound: C[C@H]([C@@H](C(=O)N)NC(=O)[C@@H]1CSSC[C@@H](C(=O)N[C@H](C(=O)N[C@@H](C(=O)N[C@H](C(=O)N1)CCCCN)CC2=CNC3=CC=CC=C32)CC4=CC=C(C=C4)O)NC(=O)[C@@H](CC5=CC=CC=C5)N)O [CAP-232] + CC1(C)CCC(c2ccc(Cl)cc2)=C(CN2CCN(c3ccc(C(=O)NS(=O)(=O)c4ccc(N[C@H](CCN5CCOCC5)CSc5ccccc5)c(S(=O)(=O)C(F)(F)F)c4)cc3)CC2)C1 [Navitoclax] (partner 0.5 µM)
Outline: (§1)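 Values are medians from duplicate plates. Each reflects relative viability, defined as the nuclei count of treated wells over that of vehicle wells. Lung cancer cell lines in 1536-well plates were pin-tool dosed one day after seeding with one drug alone or with a fixed anchor-drug dose plus five library-drug doses (not always all listed) in √10 steps, then fixed, stained and imaged at 4× after 5 days.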

[3] = compound: C[C@H]([C@@H](C(=O)N)NC(=O)[C@@H]1CSSC[C@@H](C(=O)N[C@H](C(=O)N[C@@H](C(=O)N[C@H](C(=O)N1)CCCCN)CC2=CNC3=CC=CC=C32)CC4=CC=C(C=C4)O)NC(=O)[C@@H](CC5=CC=CC=C5)N)O [CAP-232] + COc1cccc2cc(-c3nc([C@H]4CC[C@H](C(=O)O)CC4)n4ncnc(N)c34)[nH]c12 [OSI-027] (partner 0.5 µM)
Outline: as §1

[4] = compound: C[C@H]([C@@H](C(=O)N)NC(=O)[C@@H]1CSSC[C@@H](C(=O)N[C@H](C(=O)N[C@@H](C(=O)N[C@H](C(=O)N1)CCCCN)CC2=CNC3=CC=CC=C32)CC4=CC=C(C=C4)O)NC(=O)[C@@H](CC5=CC=CC=C5)N)O [CAP-232] + CS(=O)(=O)N1CCN(Cc2cc3nc(-c4cccc5[nH]ncc45)nc(N4CCOCC4)c3s2)CC1 [Pictilisib] (partner 1 µM)
Outline: as §1

[5] = compound: C[C@H]([C@@H](C(=O)N)NC(=O)[C@@H]1CSSC[C@@H](C(=O)N[C@H](C(=O)N[C@@H](C(=O)N[C@H](C(=O)N1)CCCCN)CC2=CNC3=CC=CC=C32)CC4=CC=C(C=C4)O)NC(=O)[C@@H](CC5=CC=CC=C5)N)O [CAP-232] + Nc1ncn([C@H]2C[C@H](O)[C@@H](CO)O2)c(=O)n1 [Decitabine] (partner 2 µM)
Outline: as §1

Cell Line | relative viability ([1]; 0.4 µM) | relative viability ([1]; 1.265 µM) | relative viability ([1]; 4 µM) | relative viability ([1]; 12.65 µM) | relative viability ([2]; first compound 0.4 µM) | relative viability ([2]; first compound 1.265 µM) | relative viability ([2]; first compound 4 µM) | relative viability ([2]; first compound 12.65 µM) | relative viability ([3]; first compound 0.4 µM) | relative viability ([3]; first compound 1.265 µM) | relative viability ([3]; first compound 4 µM) | relative viability ([3]; first compound 12.65 µM) | relative viability ([4]; first compound 0.4 µM) | relative viability ([4]; first compound 1.265 µM) | relative viability ([4]; first compound 4 µM) | relative viability ([4]; first compound 12.65 µM) | relative viability ([5]; first compound 0.4 µM) | relative viability ([5]; first compound 1.265 µM) | relative viability ([5]; first compound 4 µM) | relative viability ([5]; first compound 12.65 µM)
NCI-H322M | 1.13 | 0.86 | 0.896 | 1.16 | 1.32 | 1.26 | 1.36 | 1.13 | 0.569 | 0.528 | 0.52 | 0.437 | 0.54 | 0.556 | 0.519 | 0.487 | 0.706 | 0.654 | 0.701 | 0.704
NCI-H441 | 1.07 | 0.969 | 1.07 | 0.921 | 0.554 | 0.756 | 0.717 | 0.641 | 0.527 | 0.683 | 0.602 | 0.686 | 0.411 | 0.462 | 0.412 | 0.385 | 0.26 | 0.242 | 0.286 | 0.234
NCI-H460 | 1.04 | 1.01 | 1.09 | 0.777 | 1.02 | 1.36 | 1.11 | 0.542 | 0.767 | 0.739 | 0.825 | 0.275 | 0.328 | 0.306 | 0.433 | 0.349 | 0.496 | 0.475 | 0.541 | 0.17
NCI-H520 | 1.09 | 1.01 | 1.07 | 0.928 | 1.03 | 0.997 | 1.13 | 0.582 | 0.258 | 0.31 | 0.304 | 0.3 | 0.379 | 0.315 | 0.314 | 0.25 | 0.496 | 0.509 | 0.518 | 0.416
NCI-H596 | 1.12 | 0.934 | 0.912 | 0.976 | 0.839 | 1 | 1.08 | 0.987 | 0.767 | 0.726 | 0.884 | 0.633 | 0.421 | 0.388 | 0.36 | 0.328 | 1.03 | 0.971 | 0.69 | 0.965
NCI-H647 | 1.11 | 0.808 | 1.17 | 0.768 | 1.35 | 1.27 | 1.31 | 1.09 | 0.576 | 0.775 | 0.739 | 0.577 | 0.431 | 0.354 | 0.482 | 0.365 | 0.308 | 0.372 | 0.318 | 0.297
NCI-H727 | 0.746 | 0.938 | 0.955 | 0.913 | – | 0.431 | 0.377 | 0.347 | 0.593 | 0.515 | 0.795 | 0.421 | – | 0.346 | 0.361 | 0.28 | 0.717 | 0.831 | 1.07 | 0.957
NCI-H838 | 1.03 | 0.943 | 1.05 | 0.757 | 1.21 | 1.19 | 1.28 | 0.556 | 0.342 | 0.434 | 0.461 | 0.314 | 0.439 | 0.357 | 0.475 | 0.345 | 0.408 | 0.469 | 0.479 | 0.374
